In ChEMBL document CHEMBL4396937, “Synthesis of new triazole fused imidazo[2,1-b]thiazole hybrids with emphasis on Staphylococcus aureus virulence factors” (Bioorg Med Chem Lett, 2019) one finds MIC, MBC and MFC data, which are given here for six compounds.

Values after ≈ are worked out from the molar mass of the structure shown. Active and inactive are the calls of the source. The calls are words filed in the database; no cut-off is given here.

What all share (type): functional
Test [1] relates to Bacillus subtilis. In words: Antibacterial activity against Bacillus subtilis MTCC 121 assessed as reduction in bacterial growth incubated for 24 hrs by agar well diffusion method.
The subject of test [2] is Micrococcus luteus. In words: Bactericidal activity against Micrococcus luteus MTCC 2470 assessed as reduction in bacterial survival incubated for 24 hrs followed by transfer of microbial suspension to agar plates and measured at 24 hrs post transfer by agar well diffusion method.
Test [3] concerns Escherichia coli. Kind of test: Bactericidal activity against Escherichia coli MTCC 739 assessed as reduction in bacterial survival incubated for 24 hrs followed by transfer of microbial suspension to agar plates and measured at 24 hrs post transfer by agar well diffusion method.
Test [4] has as its system Raoultella planticola. Kind of test: Antibacterial activity against Klebsiella planticola MTCC 530 assessed as reduction in bacterial growth incubated for 24 hrs by agar well diffusion method.
The test system of test [5] is Escherichia coli. Kind of test: Antibacterial activity against Escherichia coli MTCC 739 assessed as reduction in bacterial growth incubated for 24 hrs by agar well diffusion method.
Test [6] concerns Pseudomonas aeruginosa. Kind of test: Antibacterial activity against Pseudomonas aeruginosa MTCC 2453 assessed as reduction in bacterial growth incubated for 24 hrs by agar well diffusion method.
The test system of test [7] is Staphylococcus aureus. Kind of test: Bactericidal activity against Staphylococcus aureus MTCC 96 assessed as reduction in bacterial survival incubated for 24 hrs followed by transfer of microbial suspension to agar plates and measured at 24 hrs post transfer by agar well diffusion method.
Test [8] concerns Staphylococcus aureus. In words: Antibacterial activity against Staphylococcus aureus MLS-16 MTCC 2940 assessed as reduction in bacterial growth incubated for 24 hrs by agar well diffusion method.
Test [9] concerns Candida albicans. Kind of test: Fungicidal activity against Candida albicans MTCC 3017 assessed as reduction in fungal survival incubated for 24 hrs followed by transfer of microbial suspension to agar plates and measured at 24 hrs post transfer by agar well diffusion method. To be noted: MTCC 3017, 24 h.
For test [10], the system named is Raoultella planticola. In words: Bactericidal activity against Klebsiella planticola MTCC 530 assessed as reduction in bacterial survival incubated for 24 hrs followed by transfer of microbial suspension to agar plates and measured at 24 hrs post transfer by agar well diffusion method.
Test [11] concerns Bacillus subtilis. In words: Bactericidal activity against Bacillus subtilis MTCC 121 assessed as reduction in bacterial survival incubated for 24 hrs followed by transfer of microbial suspension to agar plates and measured at 24 hrs post transfer by agar well diffusion method.
In test [12] the test system is Staphylococcus aureus. In words: Antibacterial activity against Staphylococcus aureus MTCC 96 assessed as reduction in bacterial growth incubated for 24 hrs by agar well diffusion method.
Test [13] has as its system Candida albicans. In words: Antifungal activity against Candida albicans MTCC 3017 assessed as reduction in fungal growth incubated for 24 hrs by agar well diffusion method. To be noted: MTCC 3017, 24 h.
In test [14] the test system is Staphylococcus aureus. Kind of test: Bactericidal activity against Staphylococcus aureus MLS-16 MTCC 2940 assessed as reduction in bacterial survival incubated for 24 hrs followed by transfer of microbial suspension to agar plates and measured at 24 hrs post transfer by agar well diffusion method.
Test [15] concerns Pseudomonas aeruginosa. In words: Bactericidal activity against Pseudomonas aeruginosa MTCC 2453 assessed as reduction in bacterial survival incubated for 24 hrs followed by transfer of microbial suspension to agar plates and measured at 24 hrs post transfer by agar well diffusion method.
Test [16] concerns Micrococcus luteus. In words: Antibacterial activity against Micrococcus luteus MTCC 2470 assessed as reduction in bacterial growth incubated for 24 hrs by agar well diffusion method.

In the case of `O=C(c1cn(-c2ccc(C(F)(F)F)cc2)nn1)c1c(-c2ccc(Cl)cc2)nc2sccn12`, the MIC is 15.6 µg/mL (≈ 32.9 µM) in the test with Bacillus subtilis [1] (MTCC 121, 24 h); greater than 125 µg/mL with Raoultella planticola [4] (MTCC 530, 24 h); greater than 125 µg/mL in the test on Escherichia coli [5] (MTCC 739, 24 h); greater than 125 µg/mL in the test on Pseudomonas aeruginosa [6] (MTCC 2453, 24 h); greater than 125 µg/mL with Staphylococcus aureus [8] (MLS-16 MTCC 2940, 24 h); greater than 125 µg/mL in the test with Staphylococcus aureus [12] (MTCC 96, 24 h). Also, the MIC was 15.6 µg/mL (≈ 32.9 µM) in the test on Candida albicans [13] and greater than 125 µg/mL in the test on Micrococcus luteus [16] (MTCC 2470, 24 h). Also, the MBC was greater than 125 µg/mL in the test on Micrococcus luteus [2] (MTCC 2470, 24 h); greater than 125 µg/mL in the test on Escherichia coli [3] (MTCC 739, 24 h); greater than 125 µg/mL with Staphylococcus aureus [7] (MTCC 96, 24 h); greater than 125 µg/mL in the test on Raoultella planticola [10] (MTCC 530, 24 h); 31.2 µg/mL (≈ 65.8 µM) in the test on Bacillus subtilis [11] (MTCC 121, 24 h); greater than 125 µg/mL in the test with Staphylococcus aureus [14] (MLS-16 MTCC 2940, 24 h). Besides, the MBC in the test with Pseudomonas aeruginosa [15] (MTCC 2453, 24 h) is greater than 125 µg/mL. Also, the MFC in the test on Candida albicans [9] was 15.6 µg/mL (≈ 32.9 µM).

With `COc1ccc(-c2nc3sccn3c2C(=O)c2cn(-c3ccc(C(F)(F)F)cc3)nn2)cc1`, the MIC with Bacillus subtilis [1] (MTCC 121, 24 h) is 15.6 µg/mL (≈ 33.2 µM); with Raoultella planticola [4] (MTCC 530, 24 h) it was greater than 125 µg/mL; in the test with Escherichia coli [5] (MTCC 739, 24 h), greater than 125 µg/mL; with Pseudomonas aeruginosa [6] (MTCC 2453, 24 h) it was greater than 125 µg/mL; in the test on Staphylococcus aureus [8] (MLS-16 MTCC 2940, 24 h) it was 15.6 µg/mL (≈ 33.2 µM); in the test on Staphylococcus aureus [12] (MTCC 96, 24 h), 15.6 µg/mL (≈ 33.2 µM). Moreover, the minimum inhibitory concentration (MIC) stood at 7.8 µg/mL (≈ 16.6 µM) in the test on Candida albicans [13] and 7.8 µg/mL (≈ 16.6 µM) in the test with Micrococcus luteus [16] (MTCC 2470, 24 h). For the same compound, the MBC in the test with Micrococcus luteus [2] (MTCC 2470, 24 h) was 15.6 µg/mL (≈ 33.2 µM); in the test on Escherichia coli [3] (MTCC 739, 24 h), greater than 125 µg/mL; with Staphylococcus aureus [7] (MTCC 96, 24 h), 31.2 µg/mL (≈ 66.5 µM); in the test on Raoultella planticola [10] (MTCC 530, 24 h) it was greater than 125 µg/mL; with Bacillus subtilis [11] (MTCC 121, 24 h), 31.2 µg/mL (≈ 66.5 µM); in the test with Staphylococcus aureus [14] (MLS-16 MTCC 2940, 24 h), 31.2 µg/mL (≈ 66.5 µM). For the same compound, the MBC in the test on Pseudomonas aeruginosa [15] (MTCC 2453, 24 h) was greater than 125 µg/mL. Further, the MFC in the test on Candida albicans [9] was 15.6 µg/mL (≈ 33.2 µM).

In the case of `COc1cc(-n2cc(C(=O)c3c(-c4ccccc4)nc4sccn34)nn2)cc(OC)c1OC`, the MIC in the test on Bacillus subtilis [1] (MTCC 121, 24 h) is 3.9 µg/mL (≈ 8.45 µM); in the test on Raoultella planticola [4] (MTCC 530, 24 h) it was 31.2 µg/mL (≈ 67.6 µM); in the test with Escherichia coli [5] (MTCC 739, 24 h), greater than 125 µg/mL; in the test on Pseudomonas aeruginosa [6] (MTCC 2453, 24 h) it was greater than 125 µg/mL; in the test on Staphylococcus aureus [8] (MLS-16 MTCC 2940, 24 h) it was 7.8 µg/mL (≈ 16.9 µM); in the test on Staphylococcus aureus [12] (MTCC 96, 24 h), 3.9 µg/mL (≈ 8.45 µM). In addition, the minimum inhibitory concentration (MIC) in the test with Candida albicans [13] is 15.6 µg/mL (≈ 33.8 µM); in the test on Micrococcus luteus [16] (MTCC 2470, 24 h), 3.9 µg/mL (≈ 8.45 µM). The MBC with Micrococcus luteus [2] (MTCC 2470, 24 h) is 7.8 µg/mL (≈ 16.9 µM); in the test with Escherichia coli [3] (MTCC 739, 24 h), greater than 125 µg/mL; in the test on Staphylococcus aureus [7] (MTCC 96, 24 h), 7.8 µg/mL (≈ 16.9 µM); with Raoultella planticola [10] (MTCC 530, 24 h) it was 62.5 µg/mL (≈ 135 µM); with Bacillus subtilis [11] (MTCC 121, 24 h) it was 7.8 µg/mL (≈ 16.9 µM); with Staphylococcus aureus [14] (MLS-16 MTCC 2940, 24 h) it was 15.6 µg/mL (≈ 33.8 µM). Besides, in the test on Pseudomonas aeruginosa [15] (MTCC 2453, 24 h), the MBC was greater than 125 µg/mL. The minimum fungicidal concentration (MFC) with Candida albicans [9] came out at 31.2 µg/mL (≈ 67.6 µM).

As to `Clc1ccc(COC(Cn2ccnc2)c2ccc(Cl)cc2Cl)c(Cl)c1` (stereo unspecified) [MICONAZOLE], the MIC result with Bacillus subtilis [1], in the test with Raoultella planticola [4], in the test on Escherichia coli [5], with Pseudomonas aeruginosa [6], in the test on Staphylococcus aureus [8] and with Staphylococcus aureus [12] was “inactive” each time. Further, the MIC entry in the test on Micrococcus luteus [16] was “inactive”. In addition, the MBC entry in the test with Micrococcus luteus [2], in the test on Escherichia coli [3], in the test on Staphylococcus aureus [7], with Raoultella planticola [10], in the test on Bacillus subtilis [11] and with Staphylococcus aureus [14] was “inactive” throughout. Besides, the MBC entry in the test on Pseudomonas aeruginosa [15] was “inactive”. Besides, the MFC in the test with Candida albicans [9] came to 3.9 µg/mL (≈ 9.37 µM). In addition, the MIC in the test with Candida albicans [13] was 3.9 µg/mL (≈ 9.37 µM).

Consider `COc1ccc(-n2cc(C(=O)c3c(-c4ccccc4)nc4sccn34)nn2)cc1`, for which the MIC was 3.9 µg/mL (≈ 9.71 µM) in the test with Bacillus subtilis [1] (MTCC 121, 24 h); 15.6 µg/mL (≈ 38.9 µM) in the test on Raoultella planticola [4] (MTCC 530, 24 h); greater than 125 µg/mL with Escherichia coli [5] (MTCC 739, 24 h); greater than 125 µg/mL with Pseudomonas aeruginosa [6] (MTCC 2453, 24 h); 7.8 µg/mL (≈ 19.4 µM) in the test with Staphylococcus aureus [8] (MLS-16 MTCC 2940, 24 h); 7.8 µg/mL (≈ 19.4 µM) in the test on Staphylococcus aureus [12] (MTCC 96, 24 h). Moreover, the MIC in the test on Candida albicans [13] turned out to be 15.6 µg/mL (≈ 38.9 µM); in the test with Micrococcus luteus [16] (MTCC 2470, 24 h) it was 3.9 µg/mL (≈ 9.71 µM). The MBC in the test with Micrococcus luteus [2] (MTCC 2470, 24 h) was 7.8 µg/mL (≈ 19.4 µM); with Escherichia coli [3] (MTCC 739, 24 h), greater than 125 µg/mL; in the test with Staphylococcus aureus [7] (MTCC 96, 24 h), 15.6 µg/mL (≈ 38.9 µM); with Raoultella planticola [10] (MTCC 530, 24 h), 31.2 µg/mL (≈ 77.7 µM); with Bacillus subtilis [11] (MTCC 121, 24 h), 7.8 µg/mL (≈ 19.4 µM); with Staphylococcus aureus [14] (MLS-16 MTCC 2940, 24 h) it was 15.6 µg/mL (≈ 38.9 µM). Besides, the MBC in the test on Pseudomonas aeruginosa [15] (MTCC 2453, 24 h) is greater than 125 µg/mL. For the same compound, the MFC in the test on Candida albicans [9] was 31.2 µg/mL (≈ 77.7 µM).

Turning to `COc1ccc(-c2nc3sccn3c2C(=O)c2cn(-c3ccc(F)cc3Br)nn2)cc1`, the minimum inhibitory concentration (MIC) was 7.8 µg/mL (≈ 15.7 µM) in the test on Bacillus subtilis [1] (MTCC 121, 24 h); 15.6 µg/mL (≈ 31.3 µM) in the test with Raoultella planticola [4] (MTCC 530, 24 h); greater than 125 µg/mL in the test with Escherichia coli [5] (MTCC 739, 24 h); greater than 125 µg/mL in the test with Pseudomonas aeruginosa [6] (MTCC 2453, 24 h); 7.8 µg/mL (≈ 15.7 µM) in the test with Staphylococcus aureus [8] (MLS-16 MTCC 2940, 24 h); 3.9 µg/mL (≈ 7.83 µM) in the test with Staphylococcus aureus [12] (MTCC 96, 24 h). Also, the minimum inhibitory concentration (MIC) was 7.8 µg/mL (≈ 15.7 µM) in the test with Candida albicans [13] and 3.9 µg/mL (≈ 7.83 µM) in the test on Micrococcus luteus [16] (MTCC 2470, 24 h). Moreover, the MBC is 7.8 µg/mL (≈ 15.7 µM) in the test on Micrococcus luteus [2] (MTCC 2470, 24 h); greater than 125 µg/mL with Escherichia coli [3] (MTCC 739, 24 h); 7.8 µg/mL (≈ 15.7 µM) with Staphylococcus aureus [7] (MTCC 96, 24 h); 15.6 µg/mL (≈ 31.3 µM) in the test on Raoultella planticola [10] (MTCC 530, 24 h); 15.6 µg/mL (≈ 31.3 µM) with Bacillus subtilis [11] (MTCC 121, 24 h); 15.6 µg/mL (≈ 31.3 µM) in the test on Staphylococcus aureus [14] (MLS-16 MTCC 2940, 24 h). The MBC with Pseudomonas aeruginosa [15] (MTCC 2453, 24 h) is greater than 125 µg/mL. The MFC in the test with Candida albicans [9] is 15.6 µg/mL (≈ 31.3 µM).
